# What was measured:
# PARP7 enzyme = PARP7 enzyme (Homo sapiens (Human), UniProt Q7Z3E1); experiment: PARP7 enzymatic experiment (HTRF assay); format: biochemical; settings: 4PL fit
# [1] = test system: lung cancer cell line H1373 (high expression of PARP7); experiment: Lung cancer cell proliferation inhibition experiment (CTG method); format: cell-based; settings: H1373 cells, 144 hrs incubation, Cell Titer Glo
# Chain of PARP7 enzyme (Q7Z3E1 456-657): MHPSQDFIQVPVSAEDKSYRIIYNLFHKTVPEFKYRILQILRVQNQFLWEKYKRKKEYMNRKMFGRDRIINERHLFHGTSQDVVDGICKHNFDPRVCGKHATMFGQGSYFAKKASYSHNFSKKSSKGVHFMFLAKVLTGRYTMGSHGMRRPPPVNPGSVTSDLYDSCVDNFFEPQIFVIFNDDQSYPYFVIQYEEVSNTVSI
Compound,IC50 (PARP7 enzyme) [µM],"IC50 ([1]; Homo sapiens, NCI-H1373, 144 h) [µM]",IC50 [1] [µM]
O=C(CCOC[C@@H]1CCN1c1cn[nH]c(=O)c1C(F)(F)F)N1CCN2c3ncc(C(F)(F)F)cc3C(F)(F)C[C@@H]2C1 [Compound 93A],0.00282,0.0156,
CC(=O)c1c(N[C@@H](C)COCCC(=O)N2CCN3c4ncc(C(F)(F)F)cc4OCC3C2)cn[nH]c1=O (stereo partly drawn) [Compound 69],0.00392,,0.483
"CC(=O)c1c(N[C@@H](C)COCCC(=O)N2CCN3c4ncc(C(F)(F)F)cc4OCC[C@@H]3C2)cn[nH]c1=O (single isomer, unassigned) [Compound 70B]",0.00754,,0.342
COC[C@@H](COCCC(=O)N1CCN2c3ncc(C(F)(F)F)cc3N(C(C)C)C(=O)[C@H]2C1)Nc1cn[nH]c(=O)c1C(F)(F)F [Compound 25B],0.00536,0.0534,
"CN1C(=O)[C@H]2CN(C(=O)CCOC[C@@H]3CCCN3c3cn[nH]c(=O)c3C(F)(F)F)CCN2c2ncc(C(F)(F)F)cc21 (single isomer, unassigned) [Compound 98B]",0.00136,,0.0371
Cc1c2n(c3ncc(C(F)(F)F)cc13)CCN(C(=O)CCOC[C@@H]1CCN1c1cn[nH]c(=O)c1C(F)(F)F)C2 [Compound 92],0.000686,0.00802,
"C[C@@H]1C[C@@H]2CN(C(=O)CCOC[C@@H]3CCN3c3cn[nH]c(=O)c3C(F)(F)F)CCN2c2ncc(C(F)(F)F)cc21 (single isomer, unassigned) [Compound 94A]",0.00237,,0.00851
C[C@@H](COCCC(=O)N1CCN2c3ncc(Br)cc3N(C)C(=O)[C@H]2C1)Nc1cn[nH]c(=O)c1C(F)(F)F [Compound 21B],0.000812,0.0436,
CC(=O)c1c(N[C@@H](C)COCCC(=O)N2CCN3c4ncc(C(F)(F)F)cc4N(C4CC4)C(=O)C3C2)cn[nH]c1=O (stereo partly drawn) [Compound 27],0.00698,0.441,
C[C@@H](COCCC(=O)N1CCN2c3ncc(C(F)(F)F)cc3[C@@](C)(O)[C@H]2C1)Nc1cn[nH]c(=O)c1C(F)(F)F [Compound 79C],0.00477,0.456,
"COC[C@@H](COCCC(=O)N1CCN2c3ncc(C(F)(F)F)cc3OC[C@@H]2C1)Nc1cn[nH]c(=O)c1C(F)(F)F (single isomer, unassigned) [Compound 66B]",0.00182,,0.0704
COC[C@@H](COCCC(=O)N1CCN2c3ncc(C(F)(F)F)cc3N(C(C)C)C(=O)[C@@H]2C1)Nc1cn[nH]c(=O)c1C(F)(F)F [Compound 25A],0.00372,0.0381,
"C[C@@H](COCCC(=O)N1CCN2c3ncc(Br)cc3SCC[C@H]2C1)Nc1cn[nH]c(=O)c1C(F)(F)F (single isomer, unassigned) [Compound 72A]",0.000837,,0.0133
"C[C@@H](COCCC(=O)N1CCN2c3ncc(C(F)(F)F)cc3C(=O)C[C@H]2C1)Nc1cn[nH]c(=O)c1C(F)(F)F (single isomer, unassigned) [Compound 76B]",0.00504,,0.404
"COc1ccc(Cn2ncc(N3CC(C)(C)[C@H]3COCCC(=O)N3CCN4c5ncc(C(F)(F)F)cc5N(C)C(=O)[C@H]4C3)c(C(F)(F)F)c2=O)cc1 (single isomer, unassigned) [Compound 95B]",0.00588,,0.0485
CCN1C(=O)[C@H]2CN(C(=O)CCOC[C@H](C)Nc3cn[nH]c(=O)c3C(F)(F)F)CCN2c2ncc(Br)cc21 [Compound 23B],0.000863,0.0461,
C[C@H](COCCC(=O)N1CCN2c3ncc(Cl)cc3N(C)C(=O)[C@H]2C1)Nc1cn[nH]c(=O)c1C(F)(F)F [Compound 82B],0.000892,0.0216,
"CC(C)N1C(=O)[C@H]2CN(C(=O)CCOC[C@H](C)Nc3cn[nH]c(=O)c3C(F)(F)F)CCN2c2ncc(C(F)(F)F)cc21 (single isomer, unassigned) [Compound 83B]",0.00364,0.468,
"C[C@@H](COCCC(=O)N1CCN2c3ncc(Cl)cc3N(C)C(=O)[C@H]2C1)Nc1cn[nH]c(=O)c1C(F)(F)F (single isomer, unassigned) [Compound 20B]",0.00185,0.0574,
CCN1C(=O)[C@H]2CN(C(=O)CCOC[C@H](C)Nc3cn[nH]c(=O)c3C(F)(F)F)CCN2c2ncc(Cl)cc21 [Compound 22B],0.000969,0.0641,
CN1C(=O)[C@@H]2CN(C(=O)CCOC[C@@H]3CCN3c3cn[nH]c(=O)c3C(F)(F)F)CCN2c2ncc(Cl)cc21 [Compound 88A],0.000416,0.00217,
"C[C@H]1C[C@@H]2CN(C(=O)CCOC[C@@H]3CCN3c3cn[nH]c(=O)c3C(F)(F)F)CCN2c2ncc(C(F)(F)F)cc21 (single isomer, unassigned) [Compound 94C]",0.0021,,0.00703
"C[C@@H](COCCC(=O)N1CCN2c3ncc(C(F)(F)F)cc3SCC[C@H]2C1)Nc1cn[nH]c(=O)c1C(F)(F)F (single isomer, unassigned) [Compound 71B]",0.0149,,0.912
"C[C@@H](COCCC(=O)N1CCN2c3ncc(C(F)(F)F)cc3C(F)(F)C[C@@H]2C1)Nc1cn[nH]c(=O)c1C(F)(F)F (single isomer, unassigned) [Compound 77A]",0.0126,,0.349

# — patent US20240336629A1, “Tricyclic Derivatives Useful As PARP7 Inhibitors” (JACOBIO PHARMACEUTICALS CO., LTD., priority 2021, published 2024)
